We go through one sequence from patent US11603387B2, “SOCS mimetics for the treatment of diseases” (UNIVERSITY OF FLORIDA RESEARCH FOUNDATION, INC., priority 2014, dated 2023).

In one test the target is JAK2 (Homo sapiens, UniProt O60674). Nature of the test: Binding to the activation loop of JAK2.
In another test the test system is SOCS1−/− mice. Put plainly: Lethal perinatal auto-inflammatory disease in SOCS1−/− mice. It counts as in vivo, mouse. As to conditions: peptide combined with CD4 T cells. The source says: FIGS. 15A-15F. SOCS1-KIR inhibition of lethal inflammatory pathology in SOCS1−/− mice is correlated to enhanced regulatory T cell homeostasis. (FIG. 15A) Kaplan Meier curve showing survival of SOCS1^−/− (black square; n=7) or CD4^+/SOCS1-KIR treatment (purple triangles, n=12). Numbers of mice in each group are indicated in parentheses. Mice were euthanized when moribund with survival comparisons by Mantel-Cox. Statistical significance denoted by asterisks. (FIG. 15B) Photographs of H & E stains depicting heart and liver tissues of 2 week old SOCS1^−/−, SOCS1^−/− mice receiving dual treatments, or littermate control mice. Photographs shown of H & E stained liver and heart of untreated SOCS1^−/− (N=8) and WT (N=7) mice are representative of 100% of samples analyzed. Photographs shown of H & E stained liver and heart of SOCS1^−/− mice receiving combined treatments are representative of 2 out of 5 mice in regard to heart samples and 1 out of 5 mice in regards to liver tissue. (FIG. 15C) Graph showing average daily weights of SOCS1^−/− mice untreated (n=16), CD4^+/SOCS1-KIR treatment (n=12), or WT littermate controls (n=9) over a two week period. (FIG. 15D) Photographs of 2 week old SOCS1^−/− mice, SOCS1^−/− mice receiving dual treatment, and WT littermate controls. (FIG. 15E) Graphs showing IFNg levels within the sera of 2 week old WT (n=7) or SOCS1^−/− mice with (n=8) and without (n=10) CD4^+/SOCS1-KIR treatment, measured by ELISA. (FIG. 15F) Graphs showing absolute numbers of CD4^+Foxp3^+ lymphocytes present in two week old SOCS1^−/− and WT littermate control mice with or without CD4^+/SOCS1-KIR treatment and WT 6-8 week old adult mice. Each dot is representative of an individual mouse with averages denoted by lines. Statistics were performed using unpaired, two-tailed t test comparing treated SOCS1^−/− to untreated SOCS1^−/− 2 wk. Statistical significance is denoted by asterisks. *, p≤0.05; **, p 0≤0.005; ***, p≤0.0005.

The subject of test [1] is SOCS1+/+ or SOCS1+/− CD4+CD25− T cells. Nature of the test: CD4+ T cell proliferation (CFSE labeling, cell counts, 3H thymidine incorporation). It counts as cell-based, mouse. As to conditions: αCD3 + SOCS1-KIR peptide (20 μM), 72 h. The procedure:
(§1) FIGS. 5A-5D. […] (FIGS. 5A and 5B) SOCS1^+/+ or SOCS1^+/− CD4^+CD25^− T cells were stimulated with αCD3 antibodies alone or with αCD3+SOCS1-KIR peptide (20 μM) for 72 h. (FIG. 5A) CD25 expressing cells were assessed by flow cytometry. Results are representative of 4 independent experiments. (FIG. 5B) Proliferation was assessed by CFSE labeling and flow cytometry, cell counts, and ^3[H] thymidine incorporation. n=4. (FIGS. 5C and 5D) SOCS1^+/+ or SOCS1^+/− CD4^+CD25^− T cells were placed under Th17 inducing conditions in the absence or presence of SOCS1-KIR peptide (20 μM) (FIG. 5C) IFNγ expression, relative to β-actin., was assessed by qPCR (left) and ELISA (right) (n=4). (FIG. 5D) pSTAT1 and STAT1 protein expressions were assessed by western blotting. Results are representative of 4 independent experiments. Statistical comparisons were performed using Mann-Whitney U test. (*P<0.05). iTh17=Th17 inducing conditions, WT=SOCS1^+/+, and HT=SOCS1^+/−.
CD4^+ T cell proliferation was assessed by CFSE staining, ^3H thymidine incorporation, and absolute cell counts. MACS purified CD4^+CD25^− T cells, isolated from LN and spleen suspension, were stimulated in triplicate (96 well round-bottom plate; 1×10^5 cells/well) with 10 μg/ml anti-CD3 (BD Pharmingen; clone: 145.2C11) alone or in addition to 1.5 μg/ml anti-CD28 (BD Pharmingen; clone 37.51) at 37° C. (5% CO2) in RPMI 1640 (Cellgro; 10-040-CV) containing 10% FBS (INVITROGEN™ GIBCO®), 1% antibiotic/antimycotic (Herndon, Va.), and 50 μM β-ME (MP Biomedicals, Solon, Ohio). After 72 h of incubation, cell cultures were either pulsed with 0.5 mCi ^3H thymidine (GE Healthcare; Arlington Heights, Ill.) or counted and harvested for assessment by flow cytometry. In cultures analyzed by flow cytometry, T lymphocytes were labeled with 10 μg/ml CFSE prior to culture as previously described (Cozzo et al. 2003). ^3H thymidine pulsed T lymphocytes were harvested 16-18 hours after initial pulse followed by the ^3H thymidine incorporation assessment using a Beckman LS3801 Liquid Scintillation System. […]
For orientation: Dividing cells build labelled thymidine or BrdU into new DNA.

In another test the test system is STAT1. Put plainly: pSTAT1/STAT1 western blotting under Th17 inducing conditions. It counts as cell-based, mouse. As to conditions: SOCS1+/− CD4+ T cells, SOCS1-KIR peptide (20 μM). The procedure:
as §1
MACS purified CD4^+CD25^− T cells were stimulated with anti-CD3 Ab (10 μg/ml), anti-CD3 (10 μg/ml) and anti-CD28 (1.5 μg/ml) Abs, or Th17 inducing conditions in the presence or absence of SOCS1-KIR peptide as previously described. […] Equal quantities of protein were loaded and separated in 4%-12% SDS-PAGE gel (Biorad). […]

A further test has as its system EAE. As to conditions: administered in vivo; cited from earlier work.

Sequence of JAK2 (O60674 whole entry, species assumed): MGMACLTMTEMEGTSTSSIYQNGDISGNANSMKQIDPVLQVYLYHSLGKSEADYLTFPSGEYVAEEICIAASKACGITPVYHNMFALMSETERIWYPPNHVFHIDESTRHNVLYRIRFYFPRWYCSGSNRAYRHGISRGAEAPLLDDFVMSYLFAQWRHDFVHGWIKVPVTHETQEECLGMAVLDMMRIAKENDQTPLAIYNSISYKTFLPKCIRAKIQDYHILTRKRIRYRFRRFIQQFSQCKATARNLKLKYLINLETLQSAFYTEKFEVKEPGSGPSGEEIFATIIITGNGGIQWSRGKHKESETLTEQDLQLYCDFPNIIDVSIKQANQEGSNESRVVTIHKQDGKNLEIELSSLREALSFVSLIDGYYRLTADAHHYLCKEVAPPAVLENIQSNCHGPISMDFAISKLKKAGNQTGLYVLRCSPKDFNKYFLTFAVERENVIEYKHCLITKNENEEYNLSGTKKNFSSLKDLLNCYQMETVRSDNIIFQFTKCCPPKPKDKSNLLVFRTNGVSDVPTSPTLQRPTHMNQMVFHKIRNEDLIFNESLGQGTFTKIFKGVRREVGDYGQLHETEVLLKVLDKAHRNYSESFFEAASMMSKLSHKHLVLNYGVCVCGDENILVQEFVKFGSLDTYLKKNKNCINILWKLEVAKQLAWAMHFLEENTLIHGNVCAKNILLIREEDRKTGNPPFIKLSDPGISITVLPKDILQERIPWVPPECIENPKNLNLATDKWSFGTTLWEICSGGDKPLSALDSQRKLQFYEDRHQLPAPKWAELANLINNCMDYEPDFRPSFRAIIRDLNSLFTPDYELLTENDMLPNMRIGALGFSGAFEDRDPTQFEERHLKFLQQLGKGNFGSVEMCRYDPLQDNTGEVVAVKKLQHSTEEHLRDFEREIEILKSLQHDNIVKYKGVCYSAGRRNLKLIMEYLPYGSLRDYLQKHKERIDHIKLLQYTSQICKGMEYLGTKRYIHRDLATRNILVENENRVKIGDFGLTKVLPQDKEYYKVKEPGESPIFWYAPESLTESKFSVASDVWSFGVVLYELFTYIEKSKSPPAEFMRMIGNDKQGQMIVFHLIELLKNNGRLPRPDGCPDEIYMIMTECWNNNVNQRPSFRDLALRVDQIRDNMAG

As for “DTHFRTFRSHSDYRRI (SOCS1-KIR peptide) [SOCS1 mimetic peptide corresponding to the KIR region of SOCS1]”, the “Binding to and inhibition of JAK2” value in the test with JAK2 was “binds to and inhibits the function of JAK2”. In the test with SOCS1−/− mice (2 week old SOCS1−/− mice), the “Peripheral Foxp3+CD4+ Tregs” value was “enhanced peripheral homeostasis of Foxp3+CD4+ Tregs”. Further, in the test with SOCS1−/− mice (SOCS1−/− mice), the “Leukocytic infiltration into heart and liver” value was “prevent/delay leukocytic infiltration into heart and liver”; the “Quality of life (size and overall health)” value was “improve the quality of life (size and overall health improvement)”; the Survival result was “could extend the life”. Moreover, in test [1] (SOCS1+/− cells), the “Activation and proliferation of αCD3 treated SOCS1+/− CD4+ T lymphocytes relative to WT” value is given as “to levels comparable to WT receiving αCD3 stimulation”. Moreover, the “Proliferation by CFSE labeling” value in test [1] (WT and SOCS1+/− T lymphocytes) is “reduced proliferation”. Besides, in test [1], the “Absolute cell counts and 3H thymidine incorporation” value was “inhibition of T lymphocyte proliferation”. In addition, in the test with STAT1, the “STAT1 activation (phosphorylation)” value is given as “drastically reduced the enhanced STAT1 activation”. Besides, the “Immune homeostasis and EAE prevention” value in the test with EAE is “could both regulate immune homeostasis and prevent EAE”.
